pKi: −log10 of the molar value.
Target: D(2) dopamine receptor (Homo sapiens, UniProt P14416)
Test: Antagonist activity at dopamine D2 receptor (unknown origin)

D(2) dopamine receptor, sequence (P14416 whole entry): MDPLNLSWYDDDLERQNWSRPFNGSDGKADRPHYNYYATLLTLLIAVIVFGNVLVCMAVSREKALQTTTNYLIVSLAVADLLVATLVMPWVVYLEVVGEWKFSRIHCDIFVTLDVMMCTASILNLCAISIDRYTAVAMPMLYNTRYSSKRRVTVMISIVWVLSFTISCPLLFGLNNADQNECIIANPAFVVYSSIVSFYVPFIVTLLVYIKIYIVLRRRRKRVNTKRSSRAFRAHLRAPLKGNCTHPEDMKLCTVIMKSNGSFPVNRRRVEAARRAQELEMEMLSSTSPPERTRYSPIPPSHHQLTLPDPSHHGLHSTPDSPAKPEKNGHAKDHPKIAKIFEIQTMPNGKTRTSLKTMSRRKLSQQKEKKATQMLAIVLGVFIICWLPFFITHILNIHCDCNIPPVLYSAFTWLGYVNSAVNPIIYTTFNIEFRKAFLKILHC

- pKi: 8.41
SMILES: CCN1CCCC1CNc1nncc2ccc(OC)c(OC)c12 (stereo unspecified)

Reference: ChEMBL document CHEMBL3217715, “Are pyridazines privileged structures?” (Medchemcomm, 2011)
